{
  "source": "patent US20240058315A1",
  "about": "“Pyridine and Pyrazine derivative for the Treatment of CF, COPD, and Bronchiectasis” (NOVARTIS AG, priority 2019, published 2024)",
  "key": {"wild type CTFR channel": {"target": "wild type CTFR channel (Homo sapiens (Human), UniProt P13569)", "sequence (P13569 whole entry)": "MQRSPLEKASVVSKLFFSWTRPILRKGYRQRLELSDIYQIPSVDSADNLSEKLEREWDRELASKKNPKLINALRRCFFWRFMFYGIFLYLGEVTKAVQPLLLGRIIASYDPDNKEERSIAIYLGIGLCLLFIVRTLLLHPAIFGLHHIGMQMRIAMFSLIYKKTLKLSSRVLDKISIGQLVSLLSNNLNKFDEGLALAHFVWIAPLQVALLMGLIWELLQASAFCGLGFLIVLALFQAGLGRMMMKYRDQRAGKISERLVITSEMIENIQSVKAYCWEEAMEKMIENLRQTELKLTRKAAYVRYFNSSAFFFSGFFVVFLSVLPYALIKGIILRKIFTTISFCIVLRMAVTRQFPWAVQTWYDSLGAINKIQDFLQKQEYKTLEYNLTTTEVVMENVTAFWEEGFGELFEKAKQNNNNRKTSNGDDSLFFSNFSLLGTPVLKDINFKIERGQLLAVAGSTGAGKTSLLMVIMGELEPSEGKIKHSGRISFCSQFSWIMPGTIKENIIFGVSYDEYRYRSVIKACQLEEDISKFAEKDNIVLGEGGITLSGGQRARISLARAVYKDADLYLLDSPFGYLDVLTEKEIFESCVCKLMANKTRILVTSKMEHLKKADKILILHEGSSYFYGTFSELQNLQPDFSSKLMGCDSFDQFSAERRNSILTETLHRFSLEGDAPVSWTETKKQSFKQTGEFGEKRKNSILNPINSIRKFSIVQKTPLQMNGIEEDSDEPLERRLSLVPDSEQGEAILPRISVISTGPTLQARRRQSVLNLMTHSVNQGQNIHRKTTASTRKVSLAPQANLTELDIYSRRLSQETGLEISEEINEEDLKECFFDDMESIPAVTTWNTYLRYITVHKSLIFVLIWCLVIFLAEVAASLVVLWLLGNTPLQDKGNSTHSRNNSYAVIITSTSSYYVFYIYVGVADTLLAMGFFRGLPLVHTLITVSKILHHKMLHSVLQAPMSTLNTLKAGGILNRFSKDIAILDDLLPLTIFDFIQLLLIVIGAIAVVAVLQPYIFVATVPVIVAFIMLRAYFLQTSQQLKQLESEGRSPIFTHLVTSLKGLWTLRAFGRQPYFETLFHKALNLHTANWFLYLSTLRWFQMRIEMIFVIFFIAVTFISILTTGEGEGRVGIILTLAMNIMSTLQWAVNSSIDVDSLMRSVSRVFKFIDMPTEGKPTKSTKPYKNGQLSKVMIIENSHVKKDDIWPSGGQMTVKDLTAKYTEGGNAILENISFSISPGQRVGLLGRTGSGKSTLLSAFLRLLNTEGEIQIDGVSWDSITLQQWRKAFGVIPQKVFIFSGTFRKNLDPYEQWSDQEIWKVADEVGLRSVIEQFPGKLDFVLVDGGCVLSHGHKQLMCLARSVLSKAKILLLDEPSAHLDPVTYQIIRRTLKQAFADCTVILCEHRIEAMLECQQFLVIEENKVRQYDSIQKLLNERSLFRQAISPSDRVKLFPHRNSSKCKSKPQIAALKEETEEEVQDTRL", "assay": "in vitro EC50 against the wild type CFTR channel", "type": "cell-based", "excerpt": "There is no preclinical in vivo model of CFTR potentiation."}, "[1]": {"test_system": "Any Pathogen (Haemophilus parainfluenza, Haemophilus influenza, Pseudomonas aeruginosa, Moraxella, Streptococcus pneumonia) in sputum", "assay": "Phase II study in COPD patients: sputum microbiology, any pathogen", "type": "in vivo", "conditions": "for patients colonized, n (%) / patients with a positive culture, n (%): Any Pathogen; for patients colonized, n (%): all patients in sputum analysis; for patients with a positive culture, n (%): only subjects with a pathogen at baseline; for percent of patients who cleared colonization: patients with culture positive sputum at Baseline", "protocol": "A double-blinded, randomized, placebo-controlled, non-confirmatory, and multi-center, fixed-dose study of Compound A in COPD patients was conducted to assess efficacy, safety, tolerability, pharmacokinetics (PK), and pharmacodynamics (PD). Patients were randomized and stratified by smoking status (former vs current smokers). The double-blind placebo-controlled treatment period was 28 days (Day 1 to Day 28) and included visits on Days 1, 14 and 28. Eligible patients were randomized in a 2:1 ratio to receive 300 mg b.i.d. of Compound A or matching placebo for 28 consecutive days. Of note, the first 4 patients enrolled randomized in this study received 450 mg b.i.d. of Compound A or placebo, prior to an amendment reducing the dose and thereafter the dose was reduced to 300 mg b.i.d. of Compound A. The single-blind placebo-controlled follow-up period was 28 days. The follow-up period included a visit on Day 29 for key primary and secondary objective efficacy assessments, weekly follow-up contact via telephone, and an End-of-Study (EOS) visit on Day 56. Number of patients (planned and analyzed): Ninety two (92) patients were randomized into the study. The majority of the patients (N=78, 84.8%) completed the study as planned. A total of 14 patients discontinued the study (N=2 from placebo group and N=12 from Compound A group). The reasons for discontinuations include adverse events, protocol deviations (failure to meet inclusion/exclusion at Baseline), patient decision, abnormal laboratory values (positive drug screen) and administrative problems (patient unable to return to site for visits).\n(§1) Spontaneous sputum was collected from patients and used to quantify colony forming units (CFUs) as a potential efficacy marker. The collected sputum samples were cultured for the following specific bacteria: Haemophilus parainfluenza, Haemophilus influenza, Pseudomonas aeruginosa, Moraxella, and Streptococcus pneumonia. In the event of bacterial growth for one or more of the above five pathogens, then the test result was reported, including the quantitative growth. In order to be included in the sputum analysis, a patient must have provided a sufficient sputum sample at baseline and at least one other visit (Day 14, Day 29 or EOS).\n(§2) A decrease in airway bacterial colonization as detected in the sputum is considered improvement. In Table 4, the frequency (n, %) of patients was reported by treatment with Compound A and type of bacteria. Within each treatment group, the percentage was calculated as number of patients who were colonized with bacteria divided with total number of patients who produced a sputum sample at that time point.\nFor the treatment effect a summary table, the frequency (n, %) of patients with a positive culture was reported by each treatment. Only patients with a positive culture at baseline are included in this analysis. Percentage was calculated as number of patients who are colonized (i.e., have at least one culture resulted) divided with total number of patients who produced a sputum sample at each visit, by treatment."}, "Haemophilus influenzae": {"test_system": "Haemophilus influenzae", "assay": "Phase II study in COPD patients: sputum microbiology, Haemophilus influenzae", "type": "in vivo", "protocol": "(§3) Patients were randomized and stratified by smoking status (former vs current smokers). The double-blind placebo-controlled treatment period was 28 days (Day 1 to Day 28) and included visits on Days 1, 14 and 28. Eligible patients were randomized in a 2:1 ratio to receive 300 mg b.i.d. of Compound A or matching placebo for 28 consecutive days. Of note, the first 4 patients enrolled randomized in this study received 450 mg b.i.d. of Compound A or placebo, prior to an amendment reducing the dose and thereafter the dose was reduced to 300 mg b.i.d. of Compound A. The single-blind placebo-controlled follow-up period was 28 days. The follow-up period included a visit on Day 29 for key primary and secondary objective efficacy assessments, weekly follow-up contact via telephone, and an End-of-Study (EOS) visit on Day 56.\nas §1, §2"}, "[2]": {"test_system": "Pseudomonas aeruginosa Biotype 2 - dry", "assay": "Phase II study in COPD patients: sputum microbiology, Pseudomonas aeruginosa Biotype 2 - dry", "type": "in vivo", "protocol": "as §3, §1, §2"}, "[3]": {"test_system": "Pseudomonas aeruginosa small colony variant", "type": "in vivo", "conditions": "Baseline", "protocol": "as §3\nSpontaneous sputum was collected from patients and used to quantify colony forming units (CFUs) as a potential efficacy marker. […] In the event of bacterial growth for one or more of the above five pathogens, then the test result was reported, including the quantitative growth. […]\nas §2, with “In Table 4, the frequency (n, %) of patients was reported by treatment with Compound A and type of bacteria.” left out"}, "COPD patients": {"test_system": "COPD patients", "assay": "COPD PoC study (study 2): lung function (LCI, FEV1, spirometry)", "type": "in vivo, human", "protocol": "as §3"}, "CFTR": {"test_system": "CFTR", "assay": "COPD PoC study (study 2): sweat chloride", "type": "in vivo, human", "conditions": "Day 29, 300 mg bid 28 days, 90% CI −11.6, 1.25, p-value=0.091", "protocol": "as §3"}, "patients with CF": {"test_system": "patients with CF", "assay": "Clinical study in cystic fibrosis patients: lung function (FEV1)", "type": "in vivo, human", "conditions": "two weeks of treatment, listed as Compound A"}, "[4]": {"assay": "Pharmacokinetics of Compound A (half-life, trough/AUC relation)", "type": "in vivo"}, "CYP3A4/5": {"test_system": "CYP3A4/5", "assay": "Time dependent inhibition and induction of CYP3A4/5", "type": "in vitro ADME"}, "BCRP": {"target": "BCRP (Homo sapiens (Human), UniProt Q9UNQ0)", "sequence (Q9UNQ0 whole entry)": "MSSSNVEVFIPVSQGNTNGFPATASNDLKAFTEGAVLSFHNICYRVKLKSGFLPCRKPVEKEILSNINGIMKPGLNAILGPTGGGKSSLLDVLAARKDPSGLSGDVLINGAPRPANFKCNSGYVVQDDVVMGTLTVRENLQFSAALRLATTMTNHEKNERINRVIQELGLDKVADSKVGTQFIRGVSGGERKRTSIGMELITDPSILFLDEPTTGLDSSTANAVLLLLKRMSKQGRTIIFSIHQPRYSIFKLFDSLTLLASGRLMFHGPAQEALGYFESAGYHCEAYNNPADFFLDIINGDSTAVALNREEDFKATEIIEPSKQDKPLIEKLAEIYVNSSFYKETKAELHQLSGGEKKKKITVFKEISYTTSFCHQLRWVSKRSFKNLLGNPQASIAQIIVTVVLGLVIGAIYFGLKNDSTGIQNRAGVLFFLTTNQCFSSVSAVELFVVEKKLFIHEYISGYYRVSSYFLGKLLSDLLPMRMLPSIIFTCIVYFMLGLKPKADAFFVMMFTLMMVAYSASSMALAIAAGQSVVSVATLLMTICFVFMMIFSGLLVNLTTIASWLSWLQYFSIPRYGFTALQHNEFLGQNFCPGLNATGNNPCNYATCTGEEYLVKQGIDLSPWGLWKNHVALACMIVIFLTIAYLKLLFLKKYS", "assay": "in vitro inhibition of BCRP", "type": "in vitro ADME"}, "OAT1/3": {"test_system": "OAT1/3", "assay": "in vitro inhibition of OAT1/3", "type": "in vitro ADME"}, "OATP1B1": {"target": "OATP1B1 (Homo sapiens (Human), UniProt Q9Y6L6)", "sequence (Q9Y6L6 whole entry)": "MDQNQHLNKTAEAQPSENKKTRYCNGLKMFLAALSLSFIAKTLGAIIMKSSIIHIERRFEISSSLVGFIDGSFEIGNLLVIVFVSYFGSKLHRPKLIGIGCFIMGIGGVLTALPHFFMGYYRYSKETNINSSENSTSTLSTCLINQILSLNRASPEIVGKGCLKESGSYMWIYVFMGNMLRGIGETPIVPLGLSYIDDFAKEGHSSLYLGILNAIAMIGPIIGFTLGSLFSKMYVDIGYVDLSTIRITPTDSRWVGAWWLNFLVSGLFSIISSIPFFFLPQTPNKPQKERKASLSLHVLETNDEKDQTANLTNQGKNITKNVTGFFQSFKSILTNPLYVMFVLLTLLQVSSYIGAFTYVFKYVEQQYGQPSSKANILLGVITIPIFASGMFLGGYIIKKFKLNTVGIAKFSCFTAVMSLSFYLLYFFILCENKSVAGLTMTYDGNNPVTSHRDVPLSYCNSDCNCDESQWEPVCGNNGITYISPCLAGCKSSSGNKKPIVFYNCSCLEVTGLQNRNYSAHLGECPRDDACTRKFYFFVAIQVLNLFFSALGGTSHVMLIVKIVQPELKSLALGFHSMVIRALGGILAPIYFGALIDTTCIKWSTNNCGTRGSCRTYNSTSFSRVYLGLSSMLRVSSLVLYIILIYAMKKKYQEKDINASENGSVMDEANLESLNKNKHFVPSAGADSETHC", "assay": "in vitro inhibition of OATP1B1", "type": "in vitro ADME"}, "UGT1A1": {"target": "UGT1A1 (Homo sapiens (Human), UniProt P22309)", "sequence (P22309 26-533)": "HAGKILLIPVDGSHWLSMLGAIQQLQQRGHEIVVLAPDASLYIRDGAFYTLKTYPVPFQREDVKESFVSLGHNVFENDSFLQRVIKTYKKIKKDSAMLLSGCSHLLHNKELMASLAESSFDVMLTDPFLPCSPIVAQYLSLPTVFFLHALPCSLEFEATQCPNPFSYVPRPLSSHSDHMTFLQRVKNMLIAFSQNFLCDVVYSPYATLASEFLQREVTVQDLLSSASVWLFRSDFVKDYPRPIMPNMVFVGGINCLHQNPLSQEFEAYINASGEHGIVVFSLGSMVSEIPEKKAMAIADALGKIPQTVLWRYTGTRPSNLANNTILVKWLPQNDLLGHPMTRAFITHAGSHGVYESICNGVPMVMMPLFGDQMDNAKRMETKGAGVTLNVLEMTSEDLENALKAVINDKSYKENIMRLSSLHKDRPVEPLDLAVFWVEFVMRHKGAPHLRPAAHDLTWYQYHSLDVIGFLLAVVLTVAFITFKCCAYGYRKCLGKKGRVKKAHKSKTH", "assay": "in vitro inhibition of UGT1A1", "type": "in vitro ADME"}, "UGT2B7": {"target": "UGT2B7 (Homo sapiens (Human), UniProt P16662)", "sequence (P16662 24-529)": "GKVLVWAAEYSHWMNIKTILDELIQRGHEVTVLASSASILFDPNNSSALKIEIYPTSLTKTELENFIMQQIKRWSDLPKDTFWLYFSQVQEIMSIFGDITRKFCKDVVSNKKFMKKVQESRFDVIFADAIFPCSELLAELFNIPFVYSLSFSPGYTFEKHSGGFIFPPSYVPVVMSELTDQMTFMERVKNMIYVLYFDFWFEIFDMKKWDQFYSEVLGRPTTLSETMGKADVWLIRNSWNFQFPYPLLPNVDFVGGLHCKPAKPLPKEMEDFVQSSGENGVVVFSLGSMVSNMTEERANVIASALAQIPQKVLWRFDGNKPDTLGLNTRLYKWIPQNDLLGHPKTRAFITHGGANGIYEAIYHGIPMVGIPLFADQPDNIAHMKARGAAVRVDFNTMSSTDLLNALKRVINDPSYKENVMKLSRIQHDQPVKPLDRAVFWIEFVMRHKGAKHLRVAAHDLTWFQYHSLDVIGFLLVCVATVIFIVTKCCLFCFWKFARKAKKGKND", "assay": "in vitro inhibition of UGT2B7", "type": "in vitro ADME"}, "in vivo": {"assay": "in vivo", "conditions": "monkey"}},
  "note": "“Also recorded” adds a separate entry of the source.",
  "data": [
    {"smiles": "COc1nc(C(=O)NC[C@](C)(O)C(F)(F)F)c(N)cc1C(F)(F)F", "note": "(single isomer, unassigned) [Example 5]", "values": [
      {"measurement": "EC50", "setting": "wild type CTFR channel", "value": 72, "unit": "nM"},
      {"measurement": "patients colonized, n (%)", "setting": "[1]; Baseline", "value": "26 (57.8) n (%)"},
      {"measurement": "bacterial colonization, percent of patients", "setting": "[1]; Baseline, sputum analysis set", "value": 58, "unit": "%"},
      {"measurement": "patients colonized, n (%)", "setting": "[1]; D14", "value": "23 (53.5) n (%)"},
      {"measurement": "patients with a positive culture, n (%)", "setting": "[1]; D14", "value": "19 (76.0) n (%)"},
      {"measurement": "patients colonized, n (%)", "setting": "[1]; D29", "value": "23 (54.8) n (%)"},
      {"measurement": "patients with a positive culture, n (%)", "setting": "[1]; D29", "value": "18 (75.0) n (%)"},
      {"measurement": "percent of patients who cleared colonization", "setting": "[1]; Day 29, placebo 15%", "value": 25, "unit": "%"},
      {"measurement": "percent of patients colonized", "setting": "[1]; Day 29, sputum analysis set, placebo 70%", "value": 55, "unit": "%"},
      {"measurement": "patients colonized, n (%)", "setting": "[1]; EOS", "value": "17 (40.5) n (%)"},
      {"measurement": "patients with a positive culture, n (%)", "setting": "[1]; EOS", "value": "14 (58.3) n (%)"},
      {"measurement": "percent of patients who cleared colonization", "setting": "[1]; EOS, placebo 23%", "value": 42, "unit": "%"},
      {"measurement": "percent of patients colonized", "setting": "[1]; EOS, sputum analysis set, placebo 74%", "value": 41, "unit": "%"},
      {"measurement": "patients colonized, n (%)", "setting": "Haemophilus influenzae; Baseline", "value": "25 (55.6) n (%)"},
      {"measurement": "patients colonized, n (%)", "setting": "Haemophilus influenzae; D14", "value": "20 (46.5) n (%)"},
      {"measurement": "patients colonized, n (%)", "setting": "Haemophilus influenzae; D29", "value": "22 (52.4) n (%)"},
      {"measurement": "patients colonized, n (%)", "setting": "Haemophilus influenzae; EOS", "value": "16 (38.1) n (%)"},
      {"measurement": "patients colonized, n (%)", "setting": "[2]; Baseline", "value": "2 (4.4) n (%)"},
      {"measurement": "patients colonized, n (%)", "setting": "[2]; D14", "value": "4 (9.3) n (%)"},
      {"measurement": "patients colonized, n (%)", "setting": "[2]; D29", "value": "2 (4.8) n (%)"},
      {"measurement": "patients colonized, n (%)", "setting": "[2]; EOS", "value": "1 (2.4) n (%)"},
      {"measurement": "patients colonized, n (%)", "setting": "[3]", "value": "1 (2.2) n (%)"},
      {"measurement": "LCI, pre-bronchodilator FEV1 and post-bronchodilator FEV1, mean change from baseline", "setting": "COPD patients; Day 14, COPD patients", "value": "evidence of improvement"},
      {"measurement": "pre- and post-bronchodilator FVC, IC, % FEF25-75 compared to placebo", "setting": "COPD patients; Day 29, 300 mg bid 28 days, COPD patients", "value": "supportive evidence of improvement"},
      {"measurement": "estimated difference (Compound A - placebo) in mean change from baseline post-bronchodilator FEV1", "setting": "COPD patients; Day 29, 300 mg bid 28 days, COPD, 90% CI −0.02, 0.14, p-value=0.100", "value": 0.06, "unit": "L"},
      {"measurement": "posterior difference (Compound A - placebo) in mean change from baseline pre-bronchodilator FEV1", "setting": "COPD patients; Day 29, 300 mg bid 28 days, COPD, 90% CrI −0.03, 0.13, 84% probability better than placebo", "value": 0.05, "unit": "L"},
      {"measurement": "posterior difference (Compound A - placebo) in mean change from baseline LCI", "setting": "COPD patients; Day 29, 300 mg bid 28 days, COPD, 90% CrI −0.24, 0.79, 19% probability better than placebo", "value": 0.28},
      {"measurement": "efficacy results for FEV1, sweat chloride, fibrinogen, spirometry and lung volume measurements", "setting": "COPD patients; EOS, 28 days after the last dose, COPD patients", "value": "returned to baseline"},
      {"measurement": "lung function (FEV1)", "setting": "COPD patients; patients with COPD, four weeks of treatment, listed as Compound A", "value": "significant improvement; also recorded: statistically important improvement"},
      {"measurement": "estimated difference (Compound A - placebo) in mean change from baseline sweat chloride", "setting": "CFTR", "value": -5.19, "unit": "mmol/L"},
      {"measurement": "lung function (FEV1)", "setting": "patients with CF", "value": "significant improvement; also recorded: statistically important improvement"},
      {"measurement": "half-life", "setting": "[4]; in vivo", "value": "10 to 16", "unit": "h"},
      {"measurement": "trough concentration (Cmin,ss) corresponding to AUC0-24 h,ss of 91,700 ng*h/ml", "setting": "[4]; regression of Cmin,ss against AUC0-24 h,ss", "value": 3000, "unit": "ng/mL"},
      {"measurement": "effect on CYP3A4/5", "setting": "CYP3A4/5", "value": "time dependent inhibitor and inducer"},
      {"measurement": "inhibition of BCRP", "setting": "BCRP", "value": "Weak in vitro inhibition"},
      {"measurement": "inhibition of OAT1/3", "setting": "OAT1/3", "value": "Weak in vitro inhibition"},
      {"measurement": "inhibition of OATP1B1", "setting": "OATP1B1", "value": "Weak in vitro inhibition"},
      {"measurement": "inhibition of UGT1A1", "setting": "UGT1A1", "value": "Weak in vitro inhibition"},
      {"measurement": "inhibition of UGT2B7", "setting": "UGT2B7", "value": "Weak in vitro inhibition"},
      {"measurement": "AUC(0-t)", "setting": "in vivo; NOAEL exposure, AUC0-24 h (exposure threshold), chronic monkey toxicology study", "value": 91.7, "unit": "µg·h/mL"},
      {"measurement": "AUC(0-t)", "setting": "in vivo; upper range of the individual animal (monkey) exposures, AUC0-24 h", "value": 159, "unit": "µg·h/mL"}
    ]}
  ]
}
